# Values quoted from earlier work as cited in US10154968B2, “Buprenorphine nanoparticle composition and methods thereof” (AUBURN UNIVERSITY, priority 2012, dated 2018).
compound,measurement,setting,value
"CO[C@@]12CC[C@@]3(C[C@@H]1[C@](C)(O)C(C)(C)C)[C@H]1Cc4ccc(O)c5c4[C@@]3(CCN1CC1CC1)[C@H]2O5 [Buprenorphine, (25)-2-[(5R,6R,7R,145)-9α-Cyclopropylmethyl-4,5-epoxy-6,14-ethano-3-hydroxy-6-methoxymorphinan-7-yl]-3,3-dimethylbutan-2-ol]",half-life,background statement,approximately two
same,excreted unchanged in the urine,previous studies,27%
